Assay results taken from PubChem BioAssay (NCI).
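At the GI50, growth is halved. Definition used: TGI = concentration required for complete inhibition of growth.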

What was measured:
Test in all cases: DTP human tumour cell line panel, 384-well format
HOP-62 NSCLC = test system: HOP-62 NSCLC
MCF7 breast = test system: MCF7 breast
OVCAR-4 ovarian = test system: OVCAR-4 ovarian
COLO 205 colon = test system: COLO 205 colon
A498 renal = test system: A498 renal
OVCAR-3 ovarian = test system: OVCAR-3 ovarian
TK-10 renal = test system: TK-10 renal
OVCAR-5 ovarian = test system: OVCAR-5 ovarian
KM12 colon = test system: KM12 colon
NCI-H460 NSCLC = test system: NCI-H460 NSCLC
SF-268 CNS = test system: SF-268 CNS
MDA-MB-468 breast = test system: MDA-MB-468 breast
SW-620 colon = test system: SW-620 colon
SNB-75 CNS = test system: SNB-75 CNS
HCC-2998 colon = test system: HCC-2998 colon
PC-3 prostate = test system: PC-3 prostate
T-47D breast = test system: T-47D breast
ACHN renal = test system: ACHN renal
RPMI-8226 leukemia = test system: RPMI-8226 leukemia
IGROV1 ovarian = test system: IGROV1 ovarian
DU-145 prostate = test system: DU-145 prostate
SK-MEL-5 melanoma = test system: SK-MEL-5 melanoma
SF-539 CNS = test system: SF-539 CNS
CAKI-1 renal = test system: CAKI-1 renal
M14 melanoma = test system: M14 melanoma
786-0 renal = test system: 786-0 renal
SK-MEL-28 melanoma = test system: SK-MEL-28 melanoma
NCI-H522 lung = test system: NCI-H522 lung
HT29 colon = test system: HT29 colon
HCT-15 colon = test system: HCT-15 colon
K-562 leukemia = test system: K-562 leukemia
EKVX NSCLC = test system: EKVX NSCLC
NCI-H23 lung = test system: NCI-H23 lung
SNB-19 CNS = test system: SNB-19 CNS
HOP-92 NSCLC = test system: HOP-92 NSCLC
NCI/ADR-RES ovarian = test system: NCI/ADR-RES ovarian
CCRF-CEM leukemia = test system: CCRF-CEM leukemia
U251 glioblastoma = test system: U251 glioblastoma
A549 NSCLC = test system: A549 NSCLC
HS 578T breast = test system: HS 578T breast
HCT-116 colon = test system: HCT-116 colon
NCI-H322M lung = test system: NCI-H322M lung
UACC-257 melanoma = test system: UACC-257 melanoma
NCI-H226 lung = test system: NCI-H226 lung
MDA-MB-231 breast = test system: MDA-MB-231 breast
LOX IMVI melanoma = test system: LOX IMVI melanoma
SR leukemia = test system: SR leukemia
MDA-MB-435 melanoma = test system: MDA-MB-435 melanoma
MOLT-4 leukemia = test system: MOLT-4 leukemia
SN12C renal = test system: SN12C renal
SF-295 CNS = test system: SF-295 CNS
RXF 393 renal = test system: RXF 393 renal
HL-60(TB) leukemia = test system: HL-60(TB) leukemia
UO-31 renal = test system: UO-31 renal
BT-549 breast = test system: BT-549 breast
MALME-3M melanoma = test system: MALME-3M melanoma
SK-OV-3 ovarian = test system: SK-OV-3 ovarian
OVCAR-8 ovarian = test system: OVCAR-8 ovarian

Cn1cc(-c2ccc3nnc(C(F)(F)c4ccc5ncccc5c4)n3n2)cn1
GI50 (HOP-62 NSCLC): 41.2 µM | TGI (HOP-62 NSCLC): > 100 µM | GI50 (MCF7 breast): 41.8 µM | TGI (MCF7 breast): > 100 µM | GI50 (OVCAR-4 ovarian): 59.9 µM | TGI (OVCAR-4 ovarian): > 100 µM | GI50 (COLO 205 colon): 99 µM | TGI (COLO 205 colon): > 100 µM | GI50 (A498 renal): 63.2 µM | TGI (A498 renal): > 100 µM | GI50 (OVCAR-3 ovarian): 61.8 µM | TGI (OVCAR-3 ovarian): > 100 µM | GI50 (TK-10 renal): 47.6 µM | TGI (TK-10 renal): > 100 µM | GI50 (OVCAR-5 ovarian): 59.8 µM | TGI (OVCAR-5 ovarian): > 100 µM | GI50 (KM12 colon): 47.8 µM | TGI (KM12 colon): > 100 µM | GI50 (NCI-H460 NSCLC): 45.8 µM | TGI (NCI-H460 NSCLC): > 100 µM | GI50 (SF-268 CNS): 98.1 µM | TGI (SF-268 CNS): > 100 µM | GI50 (MDA-MB-468 breast): 10.2 µM | TGI (MDA-MB-468 breast): 59.6 µM | GI50 (SW-620 colon): > 100 µM | TGI (SW-620 colon): > 100 µM | GI50 (SNB-75 CNS): 43.1 µM | TGI (SNB-75 CNS): > 100 µM | GI50 (HCC-2998 colon): 49.9 µM | TGI (HCC-2998 colon): > 100 µM | GI50 (PC-3 prostate): 52.9 µM | TGI (PC-3 prostate): > 100 µM | GI50 (T-47D breast): 41.1 µM | TGI (T-47D breast): > 100 µM | GI50 (ACHN renal): 46.1 µM | TGI (ACHN renal): > 100 µM | GI50 (RPMI-8226 leukemia): 23.7 µM | TGI (RPMI-8226 leukemia): 97.8 µM | GI50 (IGROV1 ovarian): 58.2 µM | TGI (IGROV1 ovarian): > 100 µM | GI50 (DU-145 prostate): 59.1 µM | TGI (DU-145 prostate): > 100 µM | GI50 (SK-MEL-5 melanoma): 29.7 µM | TGI (SK-MEL-5 melanoma): > 100 µM | GI50 (SF-539 CNS): 56.3 µM | TGI (SF-539 CNS): > 100 µM | GI50 (CAKI-1 renal): 46.4 µM | TGI (CAKI-1 renal): > 100 µM | GI50 (M14 melanoma): > 100 µM | TGI (M14 melanoma): > 100 µM | GI50 ([…]-0 renal): 43.9 µM | TGI (786-0 renal): > 100 µM | GI50 (SK-MEL-28 melanoma): > 100 µM | TGI (SK-MEL-28 melanoma): > 100 µM | GI50 (NCI-H522 lung): 41.6 µM | TGI (NCI-H522 lung): > 100 µM | GI50 (HT29 colon): 95.3 µM | TGI (HT29 colon): > 100 µM | GI50 (HCT-15 colon): 60.5 µM | TGI (HCT-15 colon): > 100 µM | GI50 (K-562 leukemia): 53.6 µM | TGI (K-562 leukemia): > 100 µM | GI50 (EKVX NSCLC): 52.6 µM | TGI (EKVX NSCLC): > 100 µM | GI50 (NCI-H23 lung): 25 µM | TGI (NCI-H23 lung): > 100 µM | GI50 (SNB-19 CNS): 67.3 µM | TGI (SNB-19 CNS): > 100 µM | GI50 (HOP-92 NSCLC): 39.7 µM | TGI (HOP-92 NSCLC): > 100 µM | GI50 (NCI/ADR-RES ovarian): 41.4 µM | TGI (NCI/ADR-RES ovarian): > 100 µM | GI50 (CCRF-CEM leukemia): 48.5 µM | TGI (CCRF-CEM leukemia): > 100 µM | GI50 (U251 glioblastoma): 66.3 µM | TGI (U251 glioblastoma): > 100 µM | GI50 (A549 NSCLC): 85.5 µM | TGI (A549 NSCLC): > 100 µM | GI50 (HS 578T breast): 35.3 µM | TGI (HS 578T breast): > 100 µM | GI50 (HCT-116 colon): 49.2 µM | TGI (HCT-116 colon): > 100 µM | GI50 (NCI-H322M lung): 62.9 µM | TGI (NCI-H322M lung): > 100 µM | GI50 (UACC-257 melanoma): > 100 µM | TGI (UACC-257 melanoma): > 100 µM | GI50 (NCI-H226 lung): 56.3 µM | TGI (NCI-H226 lung): > 100 µM | GI50 (MDA-MB-231 breast): 53.5 µM | TGI (MDA-MB-231 breast): > 100 µM | GI50 (LOX IMVI melanoma): 68.5 µM | TGI (LOX IMVI melanoma): > 100 µM | GI50 (SR leukemia): 24.2 µM | TGI (SR leukemia): > 100 µM | GI50 (MDA-MB-435 melanoma): > 100 µM | TGI (MDA-MB-435 melanoma): > 100 µM | GI50 (MOLT-4 leukemia): 17.6 µM | TGI (MOLT-4 leukemia): 36.4 µM | GI50 (SN12C renal): 45.2 µM | TGI (SN12C renal): > 100 µM | GI50 (SF-295 CNS): 2060 nM | TGI (SF-295 CNS): > 100 µM | GI50 (RXF 393 renal): 25.2 µM | TGI (RXF 393 renal): 72.7 µM | GI50 (HL-60(TB) leukemia): 36.3 µM | TGI (HL-60(TB) leukemia): > 100 µM | GI50 (UO-31 renal): 58.6 µM | TGI (UO-31 renal): > 100 µM | GI50 (BT-549 breast): 38.1 µM | TGI (BT-549 breast): > 100 µM | GI50 (MALME-3M melanoma): 65 µM | TGI (MALME-3M melanoma): > 100 µM | GI50 (SK-OV-3 ovarian): 75.5 µM | TGI (SK-OV-3 ovarian): > 100 µM | GI50 (OVCAR-8 ovarian): 61.4 µM | TGI (OVCAR-8 ovarian): > 100 µM
